Measurements reported in US20230055237A1, “COMPOUNDS AND METHODS FOR THE TREATMENT OF CYSTIC FIBROSIS” (Flatley Discovery Lab, LLC, priority 2019, published 2023).

Target: T1, CFTR (Homo sapiens, UniProt P13569, DEL508-508)
T1 construct: Primary CF airway epithelial cells were obtained from the UNC Cystic Fibrosis Tissue Procurement and Cell Culture Core; host or cells: primary CF airway epithelial cells, differentiated at the air-liquid interface
Assay: Equivalent current assay in primary CF airway epithelial cells (NAUC, combination with 1st site corrector FDL169 or VX-809)
Type: cell-based
Conditions: 37° C., 24 h; for Nauc @ 1 μM: test compound 1 μM in combination with 1st site corrector VX-809 (3 μM); for Nauc @ 3 μM: test compound 3 μM in combination with 1st site corrector VX-809 (3 μM); for Nauc @ 10 μM: test compound 10 μM in combination with 1st site corrector VX-809 (3 μM)
Experimental: Primary CF airway epithelial cells were obtained from the UNC Cystic Fibrosis Tissue Procurement and Cell Culture Core. The cells are grown at 37° C. in a Heracell 150i incubator using growth media (BEGM, Fischer). […] Two days before the Ussing assay the mucus on the apical surface of the cells was aspirated after incubating with 200 μL of differentiation media for at least thirty (30) minutes. One day before the Ussing assay test compounds were added to the basolateral surface of the cells at various test concentrations dissolved in DMSO. Duplicate wells were prepared giving a n=3 or n=4 protocol.
Cells were treated for 24 hours with various combinations and concentrations of the test articles, reference standard (3 μM VX809 or 3 μM FDL169, positive control). Compounds stock solutions were prepared in DMSO and diluted 1/1000 into ALI media to their final assay concentration. Cells were treated with combination solutions (2 mL of each dilution) and incubated at 37° C. for 24 h.
For the equivalent current assay, cells on four Transwell (24-well) plates were treated. Each Transwell plate was filled with 200 μl of HBS on the apical surface and 2 ml on the basolateral surface. Plates were placed horizontally in a heated mount at 37° C., and equilibrated for several minutes. Resting current was measured for 15 min and then blocked by the apical addition of 5 μM benzamil. After 20 min, 10 μM forskolin and 1 μM VX770 were added to both the apical and basolateral side to stimulate CFTR. An increase in chloride current is seen as an upward deflection of the trace.
The raw data, current vs. time for the Ussing chamber (sampling interval: 10 s) and voltage vs. time and resistance vs. time for the equivalent current assay (sampling interval: 5 minutes) were transferred to Excel (Microsoft Office Professional, version 14.0.7106.5003) for analysis. […] This average is equivalent to the sum of the average forskolin activated and the average VX770-potentiated currents. The average current measured in vehicle (0.1% DMSO) treated cells, Iv, was subtracted from the current for the test article, ITA, or from the corrector reference standard VX809 (3 uM ISTD). For replicate measurements, the average vehicle subtracted response for the test article, was normalized to the average vehicle subtracted inhibitor response of the reference corrector VX809 (3 μM).
A second endpoint, for the equivalent current assay, evaluated was NAUC, the normalized area under the curve (AUC) measuring the response after addition of forskolin and VX770 to the time point right before the addition of the CFTR inhibitor. The AUC is effectively the average response multiplied by the duration of the response.
NAUCTA=[AUCTA−AUCV,ave]/[AUCVx809r,ave−AUCV,ave] (Equation 2).
Experiments were run with a minimum of n=4 replicates per concentration. Since the distribution for the ratio of two normal distributions is a Cauchy distribution, the median value must be used for the average and the average deviation must be used for the error of all normalized data.
E=Emin+(Emax−Emin)/(1+10^((LogEC5OS)*nH)) (Equation 3)

T1 sequence (P13569 with tags, fused parts or gaps DEL508-508): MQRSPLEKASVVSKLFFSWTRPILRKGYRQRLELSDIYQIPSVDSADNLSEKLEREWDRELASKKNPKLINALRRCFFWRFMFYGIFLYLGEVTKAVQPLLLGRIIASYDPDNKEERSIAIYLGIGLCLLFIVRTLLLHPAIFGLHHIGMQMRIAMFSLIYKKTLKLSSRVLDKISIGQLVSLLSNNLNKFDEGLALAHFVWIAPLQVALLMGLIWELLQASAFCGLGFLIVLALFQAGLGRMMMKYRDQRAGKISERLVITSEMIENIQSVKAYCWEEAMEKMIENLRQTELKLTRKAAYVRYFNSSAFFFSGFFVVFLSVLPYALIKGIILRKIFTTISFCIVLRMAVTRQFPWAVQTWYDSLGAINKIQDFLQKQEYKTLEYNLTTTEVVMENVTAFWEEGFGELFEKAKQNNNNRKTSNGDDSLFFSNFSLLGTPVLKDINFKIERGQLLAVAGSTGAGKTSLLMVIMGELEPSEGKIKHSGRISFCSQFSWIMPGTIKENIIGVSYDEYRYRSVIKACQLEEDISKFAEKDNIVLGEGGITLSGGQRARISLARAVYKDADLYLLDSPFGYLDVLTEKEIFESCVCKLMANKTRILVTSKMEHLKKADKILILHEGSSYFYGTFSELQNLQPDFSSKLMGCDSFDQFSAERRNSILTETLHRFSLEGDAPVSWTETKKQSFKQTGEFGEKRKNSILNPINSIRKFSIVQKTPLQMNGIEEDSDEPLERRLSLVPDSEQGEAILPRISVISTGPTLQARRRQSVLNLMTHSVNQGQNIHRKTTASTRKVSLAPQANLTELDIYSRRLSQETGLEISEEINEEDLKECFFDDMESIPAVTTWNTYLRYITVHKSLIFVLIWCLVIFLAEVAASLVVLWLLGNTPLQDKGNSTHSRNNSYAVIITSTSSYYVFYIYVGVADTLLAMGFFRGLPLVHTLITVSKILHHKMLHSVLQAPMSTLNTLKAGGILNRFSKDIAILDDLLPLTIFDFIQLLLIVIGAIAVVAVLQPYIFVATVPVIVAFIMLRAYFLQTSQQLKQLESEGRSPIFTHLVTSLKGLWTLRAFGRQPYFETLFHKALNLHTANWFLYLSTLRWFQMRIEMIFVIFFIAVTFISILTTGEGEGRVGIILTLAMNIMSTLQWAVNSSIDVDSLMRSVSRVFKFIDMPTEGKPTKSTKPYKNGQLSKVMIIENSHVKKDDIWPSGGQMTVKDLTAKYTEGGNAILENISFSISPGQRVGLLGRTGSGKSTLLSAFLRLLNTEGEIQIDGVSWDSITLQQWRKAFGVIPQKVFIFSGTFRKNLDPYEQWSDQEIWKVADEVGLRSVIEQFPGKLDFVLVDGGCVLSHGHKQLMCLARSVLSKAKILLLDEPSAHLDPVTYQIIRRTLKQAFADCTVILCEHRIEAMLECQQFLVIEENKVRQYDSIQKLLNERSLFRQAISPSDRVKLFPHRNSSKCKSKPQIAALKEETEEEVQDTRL

| Structure (SMILES) | Nauc @ 1 μM | Nauc @ 3 μM | Nauc @ 10 μM |
| --- | --- | --- | --- |
| O=C(Nc1cc(Cl)cc(Cl)c1)[C@H]1[C@H]2CCCN2[C@]2(C(=O)Nc3c(Cl)cc(Cl)cc32)[C@H]1C(=O)NN1CCOCC1 (relative stereo) [Example 243, (1′R,2′S,7a′R)-5,7-dichloro-N1′-(3,5-dichlorophenyl)-N2′-morpholino-2-oxo-1′,2′,5′,6′,7′,7a′-hexahydrospiro dicarboxamide] | + (NAUC “+” refers to an observed NAUC <140% of positive control) | + (NAUC “+” refers to an observed NAUC <140% of positive control) | – |
| O=C(Nc1cncc(C(F)(F)F)n1)C1C2C[C@@](O)(C(F)(F)F)CN2C2(C(=O)Nc3c(Cl)cc(Cl)cc32)C1C(=O)O (single isomer, unassigned) [Example 75.a] | – | – | + (NAUC “+” refers to an observed NAUC <140% of positive control) |
| COc1cc(C(F)(F)F)cc(NC(=O)C2C3CC(F)(F)CN3C3(C(=O)Nc4c(Cl)cc(Cl)cc43)C2C(=O)O)n1 (single isomer, unassigned) [Example 80.7a.1, 5,7-dichloro-6′,6′-difluoro-1′-((6-methoxy-4-(trifluoromethyl)pyridin-2-yl)carbamoyl)-2-oxo-1′,2′,5′,6′,7′,7a′-hexahydrospiro[indoline-3,3′-pyrrolizine]-2′-carboxylic acid] | – | – | + (NAUC “+” refers to an observed NAUC <140% of positive control) |
| COc1cc(C(F)(F)F)cc(NC(=O)C2C3CC(F)(F)CN3C3(C(=O)Nc4c(Cl)cc(Cl)cc43)C2C(=O)O)n1 (single isomer, unassigned) [Example 80.7a.2, 5,7-dichloro-6′,6′-difluoro-1′-((6-methoxy-4-(trifluoromethyl)pyridin-2-yl)carbamoyl)-2-oxo-1′,2′,5′,6′,7′,7a′-hexahydrospiro[indoline-3,3′-pyrrolizine]-2′-carboxylic acid] | + (NAUC “+” refers to an observed NAUC <140% of positive control) | +++ (NAUC “+++” refers to an observed NAUC>170% of positive control) | +++ (NAUC “+++” refers to an observed NAUC>170% of positive control) |
| COc1cc(C(F)(F)F)cc(NC(=O)C2C3CC(F)(F)CN3C3(C(=O)Nc4c(Cl)cc(Cl)cc43)C2C(=O)O)n1 (single isomer, unassigned) [Example 80.7b.1, 5,7-dichloro-6′,6′-difluoro-1′-((6-methoxy-4-(trifluoromethyl)pyridin-2-yl)carbamoyl)-2-oxo-1′,2′,5′,6′,7′,7a′-hexahydrospiro[indoline-3,3′-pyrrolizine]-2′-carboxylic acid] | – | – | + (NAUC “+” refers to an observed NAUC <140% of positive control) |
| COc1cc(C(F)(F)F)cc(NC(=O)C2C3CC(F)(F)CN3C3(C(=O)Nc4c(Cl)cc(Cl)cc43)C2C(=O)O)n1 (single isomer, unassigned) [Example 80.7b.2, 5,7-dichloro-6′,6′-difluoro-1′-((6-methoxy-4-(trifluoromethyl)pyridin-2-yl)carbamoyl)-2-oxo-1′,2′,5′,6′,7′,7a′-hexahydrospiro[indoline-3,3′-pyrrolizine]-2′-carboxylic acid] | – | – | + (NAUC “+” refers to an observed NAUC <140% of positive control) |
| O=C1C2C(C(F)(F)F)NC3(C(=O)Nc4c(Cl)cc(Cl)cc43)C2C(=O)N1c1cc(Cl)cc(Cl)c1 (single isomer, unassigned) [Example 81, 5,7-dichloro-4′4(3,5-dichlorophenyl)carbamoyl)-1-methyl-2-oxo-5′-(trifluoromethyl)spiro[indoline-3,2′-pyrrolidinel-3′-carboxylic acid] | + (NAUC “+” refers to an observed NAUC <140% of positive control) | ++ (NAUC “++” refers to an observed NAUC 170-140% of positive control) | + (NAUC “+” refers to an observed NAUC <140% of positive control) |
